Test results reported in patent US20150105252A1, “SUBSTITUTED PYRAZOLES AS HERBICIDES” (E I DU PONT DE NEMOURS AND COMPANY, priority 2013, published 2015).

How the values were obtained:
crabgrass, large = assay: Test C preemergence; type: in vivo, Digitaria sanguinalis; settings: for Crabgrass, Large plant response rating / Plant response rating, Crabgrass, Large: preemergence; for Plant response rating, Crabgrass, Large: 125 g ai/ha, scale 0 to 100, 0 = no effect, 100 = complete control
Procedure, shortened: (§1)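 In this greenhouse assay, seeded soil (loam plus sand) or emerged seedlings in peat-vermiculite medium were treated with formulated compound. Roughly two weeks later (13–15 days), each species was scored visually relative to controls, from 0 for no effect to 100 for complete control.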

barnyardgrass [1] = assay: Test B flood; type: in vivo, Echinochloa crus-galli; settings: 250 g ai/ha, visual rating on 0 to 100 scale (0 no effect, 100 complete control), 13 to 15 days
Procedure, shortened: (§2)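 2-leaf plants; pots flooded 3 cm over soil; compound added to paddy water, depth kept constant. Greenhouse 13–15 d. Visual rating vs controls, 0–100 scale (100 = complete control); dash = no result.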

barnyardgrass [2] = assay: Test A preemergence; type: in vivo, Echinochloa crus-galli; settings: preemergence
Procedure, shortened: (§3)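 Greenhouse test in loam soil/sand blend; compounds formulated in non-phytotoxic solvent with surfactant, applied as preemergence directed soil spray or postemergence to plants 2–10 cm tall at one- to two-leaf stage. Injury rated visually versus untreated controls after approximately 10 days on a 0 (no effect) to 100 (complete control) scale.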

blackgrass = assay: Test C preemergence; type: in vivo, Alopecurus myosuroides; settings: for Blackgrass plant response rating / Plant response rating, Blackgrass: preemergence; for Plant response rating, Blackgrass: 125 g ai/ha, scale 0 to 100, 0 = no effect, 100 = complete control
Procedure, shortened: as §1

pigweed [3] = assay: Test A preemergence; type: in vivo, Amaranthus retroflexus; settings: preemergence
Procedure, shortened: as §3

rice = assay: Test B flood; type: in vivo, Oryza sativa; settings: 250 g ai/ha, visual rating on 0 to 100 scale (0 no effect, 100 complete control), 13 to 15 days
Procedure, shortened: as §2

ryegrass, Italian = assay: Test C preemergence; type: in vivo, Lolium multiflorum; settings: for Ryegrass, Italian plant response rating / Plant response rating, Ryegrass, Italian: preemergence; for Plant response rating, Ryegrass, Italian: 125 g ai/ha, scale 0 to 100, 0 = no effect, 100 = complete control
Procedure, shortened: as §1

corn = assay: Test A postemergence; type: in vivo, Zea mays
Procedure, shortened: as §3

velvetleaf = assay: Test A postemergence; type: in vivo, Abutilon theophrasti
Procedure, shortened: as §3

foxtail, giant = assay: Test A postemergence; type: in vivo, Setaria faberii
Procedure, shortened: as §3

johnsongrass = assay: Test C preemergence; type: in vivo, Sorghum halepense; settings: for Johnsongrass plant response rating / Plant response rating, Johnsongrass: preemergence; for Plant response rating, Johnsongrass: 125 g ai/ha, scale 0 to 100, 0 = no effect, 100 = complete control
Procedure, shortened: as §1

barnyardgrass [4] = assay: Test A postemergence; type: in vivo, Echinochloa crus-galli
Procedure, shortened: as §3

morningglory = assay: Test C preemergence; type: in vivo, Ipomoea coccinea; settings: for Morningglory plant response rating / Plant response rating, Morningglory: preemergence; for Plant response rating, Morningglory: 125 g ai/ha, scale 0 to 100, 0 = no effect, 100 = complete control
Procedure, shortened: as §1

pigweed [5] = assay: Test C preemergence; type: in vivo, Amaranthus retroflexus; settings: for Pigweed plant response rating / Plant response rating, Pigweed: preemergence; for Plant response rating, Pigweed: 125 g ai/ha, scale 0 to 100, 0 = no effect, 100 = complete control
Procedure, shortened: as §1

[6] = 31 g ai/ha, visual rating, scale 0 to 100 (0 no effect, 100 complete control), 13 to 15 days
[7] = 62 g ai/ha, scale 0 to 100 (0 no effect, 100 complete control), 13 to 15 days
[8] = 125 g ai/ha, visual injury, 0 to 100 scale, approx. 10 days
[9] = 500 g ai/ha, visual injury after approx. 10 days, 0 to 100 scale (0 no effect, 100 complete control)
[10] = Postemergence, 500 g ai/ha, 0 to 100 scale (0 no effect, 100 complete control)
[11] = postemergence, 125 g ai/ha, about 10 days, visual rating on 0 to 100 scale (0 no effect, 100 complete control)
[12] = 250 g ai/ha, scale 0 to 100, 0 is no effect, 100 is complete control

Compound	Crabgrass, Large plant response rating (crabgrass, large; [6])	Crabgrass, Large plant response rating (crabgrass, large; [7])	Plant response rating, Crabgrass, Large (crabgrass, large; 13 to 15 days)	Plant response rating, Barnyardgrass (barnyardgrass [1])	Barnyardgrass plant response rating (barnyardgrass [2]; [8])	Barnyardgrass plant response rating (barnyardgrass [2]; [9])	Blackgrass plant response rating (blackgrass; [6])	Blackgrass plant response rating (blackgrass; [7])	Plant response rating, Blackgrass (blackgrass; 13 to 15 days)	Pigweed plant response rating (pigweed [3]; [8])	Pigweed plant response rating (pigweed [3]; [9])	Plant response rating, Rice (rice)	Ryegrass, Italian plant response rating (ryegrass, Italian; [6])	Ryegrass, Italian plant response rating (ryegrass, Italian; [7])	Plant response rating, Ryegrass, Italian (ryegrass, Italian; 13 to 15 days)	Corn plant response rating (corn; [10])	Corn plant response rating (corn; [11])	Velvetleaf plant response rating (velvetleaf; [10])	Velvetleaf plant response rating (velvetleaf; [11])	Foxtail, Giant plant response rating (foxtail, giant; [10])	further results
CCCNC(=O)c1cc(CC)n(Cc2ccnc(OC(F)F)c2)n1 [Compound 132]	98	100	100	60	100	100	95	98	98	100	100	35	15	85	98	90	70	100	100	90	Plant response rating (scale of 0 to 100), Crabgrass, Large (crabgrass, large; Preemergence, 250 g ai/ha): 100; Plant response rating (scale of 0 to 100), Blackgrass (blackgrass; Preemergence, 250 g ai/ha): 98; Plant response rating (scale of 0 to 100), Ryegrass, Italian (ryegrass, Italian; Preemergence, 250 g ai/ha): 98; Foxtail, Giant plant response rating (foxtail, giant; [11]): 80; Plant response rating (scale of 0 to 100), Johnsongrass (johnsongrass; Preemergence, 250 g ai/ha): 100; Johnsongrass plant response rating (johnsongrass; [6]): 25; Johnsongrass plant response rating (johnsongrass; [7]): 90; Plant response rating, Johnsongrass (johnsongrass; 13 to 15 days): 100; Barnyardgrass plant response rating (barnyardgrass [4]; [10]): 90; Barnyardgrass plant response rating (barnyardgrass [4]; [11]): 90; Plant response rating (scale of 0 to 100), Morningglory (morningglory; Preemergence, 250 g ai/ha): 100; Morningglory plant response rating (morningglory; [6]): 60; Morningglory plant response rating (morningglory; [7]): 100; Plant response rating, Morningglory (morningglory; 13 to 15 days): 100; Plant response rating (scale of 0 to 100), Pigweed (pigweed [5]; Preemergence, 250 g ai/ha): 100; Pigweed plant response rating (pigweed [5]; [6]): 100; Pigweed plant response rating (pigweed [5]; [7]): 100; Plant response rating, Pigweed (pigweed [5]; 13 to 15 days): 100
CCc1cc(C(=O)NC(C)C)nn1Cc1ccnc(C(F)(F)F)c1 [Compound 139]	100	100	100	60	90	100	85	90	90	100	100	50	10	60	90	90	50	90	40	90	Crabgrass, Large plant response rating (crabgrass, large; [12]): 100; Blackgrass plant response rating (blackgrass; [12]): 90; Ryegrass, Italian plant response rating (ryegrass, Italian; [12]): 90; Foxtail, Giant plant response rating (foxtail, giant; [11]): 90; Johnsongrass plant response rating (johnsongrass; [6]): 10; Johnsongrass plant response rating (johnsongrass; [7]): 70; Plant response rating, Johnsongrass (johnsongrass; 13 to 15 days): 85; Johnsongrass plant response rating (johnsongrass; [12]): 98; Barnyardgrass plant response rating (barnyardgrass [4]; [10]): 90; Barnyardgrass plant response rating (barnyardgrass [4]; [11]): 80; Morningglory plant response rating (morningglory; [6]): 5; Morningglory plant response rating (morningglory; [7]): 35; Plant response rating, Morningglory (morningglory; 13 to 15 days): 98; Morningglory plant response rating (morningglory; [12]): 98; Pigweed plant response rating (pigweed [5]; [6]): 55; Pigweed plant response rating (pigweed [5]; [7]): 90; Plant response rating, Pigweed (pigweed [5]; 13 to 15 days): 90; Pigweed plant response rating (pigweed [5]; [12]): 100
O=C(NCC(F)(F)F)c1cc(CCCl)n(Cc2ccnc(C(F)(F)F)c2)n1 [Compound 143]	100	100	100	45	90	100	85	85	90	100	100	25	35	80	90	90	60	90	80	90	Crabgrass, Large plant response rating (crabgrass, large; [12]): 100; Blackgrass plant response rating (blackgrass; [12]): 90; Ryegrass, Italian plant response rating (ryegrass, Italian; [12]): 90; Foxtail, Giant plant response rating (foxtail, giant; [11]): 90; Johnsongrass plant response rating (johnsongrass; [6]): 70; Johnsongrass plant response rating (johnsongrass; [7]): 85; Plant response rating, Johnsongrass (johnsongrass; 13 to 15 days): 95; Johnsongrass plant response rating (johnsongrass; [12]): 95; Barnyardgrass plant response rating (barnyardgrass [4]; [10]): 90; Barnyardgrass plant response rating (barnyardgrass [4]; [11]): 60; Morningglory plant response rating (morningglory; [6]): 100; Morningglory plant response rating (morningglory; [7]): 100; Plant response rating, Morningglory (morningglory; 13 to 15 days): 100; Morningglory plant response rating (morningglory; [12]): 100; Pigweed plant response rating (pigweed [5]; [6]): 100; Pigweed plant response rating (pigweed [5]; [7]): 100; Plant response rating, Pigweed (pigweed [5]; 13 to 15 days): 100; Pigweed plant response rating (pigweed [5]; [12]): 100
